Ki data for 20 molecules are collected here from patent US7659289B2, “Hydroxyethylene-based β-secretase inhibitors and use thereof” (CoMentis, Inc., priority 2004, dated 2010).

One assay concerns the target memapsin 2 (Homo sapiens, UniProt P56817). Kind of assay: Inhibition of memapsin 2 beta-secretase activity toward fluorogenic substrate FS-2. Format: biochemical. The note with it: pH 4, 37° C., 20 minutes pre-incubation, fluorogenic substrate FS-2, tight-binding model; read-out: M2 Ki.
The next assay addresses Cathepsin D (Homo sapiens, UniProt P07339). Kind of assay: Inhibition of cathepsin D activity (MALDI-TOF, substrate peptide […]). The assay is classed as biochemical. The note with it: pH 4.1, 37 degrees C., read-out: Cath D Ki.

Molecules are shown by their SMILES. Some results are limits rather than exact numbers.

Sequence of memapsin 2 (P56817 46-501): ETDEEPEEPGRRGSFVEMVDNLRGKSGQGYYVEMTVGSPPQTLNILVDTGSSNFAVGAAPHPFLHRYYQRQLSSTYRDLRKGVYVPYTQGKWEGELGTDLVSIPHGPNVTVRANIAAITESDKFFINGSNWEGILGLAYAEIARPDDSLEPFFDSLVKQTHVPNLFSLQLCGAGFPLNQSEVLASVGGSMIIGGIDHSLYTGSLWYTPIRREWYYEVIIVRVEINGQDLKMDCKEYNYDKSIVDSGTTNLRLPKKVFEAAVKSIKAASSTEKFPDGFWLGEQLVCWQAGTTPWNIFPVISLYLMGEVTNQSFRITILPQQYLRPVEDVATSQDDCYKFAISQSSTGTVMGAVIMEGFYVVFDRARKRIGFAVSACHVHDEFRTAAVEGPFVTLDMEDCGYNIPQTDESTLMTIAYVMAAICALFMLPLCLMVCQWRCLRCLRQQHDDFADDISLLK
Sequence of Cathepsin D (P07339 65-412, species assumed): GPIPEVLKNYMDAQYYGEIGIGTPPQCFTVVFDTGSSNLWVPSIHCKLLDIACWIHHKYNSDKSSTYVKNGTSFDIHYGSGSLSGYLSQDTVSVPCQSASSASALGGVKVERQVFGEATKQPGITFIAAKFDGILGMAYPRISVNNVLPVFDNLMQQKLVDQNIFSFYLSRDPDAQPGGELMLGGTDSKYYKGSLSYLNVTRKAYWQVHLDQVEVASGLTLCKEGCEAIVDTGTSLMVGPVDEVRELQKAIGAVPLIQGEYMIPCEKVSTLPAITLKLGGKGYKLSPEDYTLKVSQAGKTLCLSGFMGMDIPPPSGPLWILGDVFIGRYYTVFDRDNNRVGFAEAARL
Experimental for Cathepsin D: After equilibration at 37 degrees C., the reactions were initiated by the addition of an aliquot of memapsin 2. Aliquots were removed at time intervals, and combined with an equal volume of MALDI-TOF matrix (α-hydroxycinnamic acid in acetone, 20 mg/ml) and immediately spotted in duplicate onto a stainless-steel MALDI sample plate. MALDI-TOF mass spectrometry was performed on a PE Biosystems Voyager DE instrument at the Molecular Biology Resource Center on campus. The instrument was operated at 25,000 accelerating volts in positive mode with a 150 ns delay. Ions with a mass-to-charge ratio (m/z) were detected in the range of 650-2000 atomic mass units. Data was analyzed by the Voyager Data Explorer module to obtain ion intensity data for mass species of substrates and corresponding products in a given mixture. Relative product formation was calculated as the ratio of signal intensity of the product to the sum of signal intensities of both product and the corresponding substrate. Relative product formed per unit time was obtained from non-linear regression analysis of the data representing the initial 15% formation of product using the model: 1−e^−kT,
where k is the relative hydrolytic rate constant and T is time in seconds. Initial rates were expressed relative to uninhibited controls and fit to a tight-binding model of competitive inhibition as above.

With `Cc1cc(C)n(CCC(=O)N[C@@H](CC(=O)OCc2ccccc2)C(=O)N[C@@H](CC(C)C)[C@@H](O)C[C@@H](C)C(=O)N[C@H](C(=O)NCC(C)C)C(C)C)n1` [(S)-benzyl 3-(3-(3,5-dimethyl-1H-pyrazol-1-yl)propanamido)-4-((4S,5S,7R)-5-hydroxy-8-((S)-1-(isobutylamino)-3-methyl-1-oxobutan-2-ylamino)-2,7-dimethyl-8-oxooctan-4-ylamino)-4-oxobutanoate], the inhibitory constant (Ki) at memapsin 2 was less than 100 nM. For `Cc1nc(COC(=O)N[C@@H](CC(=O)N(C)C)C(=O)N[C@@H](CC(C)C)[C@@H](O)C[C@@H](C)C(=O)N[C@H](C(=O)NCC(C)C)C(C)C)c(C)o1` [(2,5-dimethyloxazol-4-yl)methyl (5S,8S,9S,11R,14S)-9-hydroxy-8-isobutyl-14-isopropyl-2,11,18-trimethyl-3,6,12,15-tetraoxo-2,7,13,16-tetraazanonadecan-5-ylcarbamate], at memapsin 2, the Ki lay in the range of 100 to 600 nM.

With `Cc1csc(C[C@H](C)C(=O)N[C@@H](CC(N)=O)C(=O)N[C@@H](CC(C)C)[C@@H](O)C[C@@H](C)C(=O)N[C@H](C(=O)NCC(C)C)C(C)C)n1` [(S)-N1-((4S,5S,7R)-5-hydroxy-8-((S)-1-(isobutylamino)-3-methyl-1-oxobutan-2-ylamino)-2,7-dimethyl-8-oxooctan-4-yl)-2-((S)-2-methyl-3-(4-methylthiazol-2-yl)propanamido)succinamide], the inhibitory constant (Ki) was 100 to 600 nM on memapsin 2 and less than 100 nM at Cathepsin D. On the same counts, the results for `CC(=O)NC[C@H](NC(=O)OCc1nc(C)cs1)C(=O)N[C@@H](CC(C)C)[C@@H](O)C[C@@H](C)C(=O)N[C@H](C(=O)NCC(C)C)C(C)C` [(4-methylthiazol-2-yl)methyl (5S,8S,9S,11R,14S)-9-hydroxy-8-isobutyl-14-isopropyl-11,18-dimethyl-2,6,12,15-tetraoxo-3,7,13,16-tetraazanonadecan-5-yicarbamate] are 100 to 600 nM and 100 to 600 nM. As for `CC[C@H](Cn1nc(C)cc1C)C(=O)N[C@@H](CNC(=O)OC(C)(C)C)C(=O)N[C@@H](CC(C)C)[C@@H](O)C[C@@H](C)C(=O)N[C@H](C(=O)NCC(F)(F)F)C(C)C` [tert-butyl (S)-2-((R)-2-((3,5-dimethyl-1H-pyrazol-1-yl)methyl)butanamido)-3-((4S,5S,7R)-5-hydroxy-2,7-dimethyl-8-((S)-3-methyl-1-oxo-1-(2,2,2-trifluoroethylamino)butan-2-ylamino)-8-oxooctan-4-ylamino)-3-oxopropylcarbamate], the Ki on memapsin 2 was more than 600 nM; at Cathepsin D, 100 to 600 nM. Turning to `CC[C@H](Cc1nc(C)cs1)C(=O)N[C@@H](CNC(=O)OC(C)(C)C)C(=O)N[C@@H](CC(C)C)[C@@H](O)C[C@@H](C)C(=O)N[C@H](C(=O)NCC(C)C)C(C)C` [tert-butyl (S)-3-((4S,5S,7R)-5-hydroxy-8-((S)-1-(isobutylamino)-3-methyl-1-oxobutan-2-ylamino)-2,7-dimethyl-8-oxooctan-4-ylamino)-2-((R)-2-((4-methylthiazol-2-yl)methyl)butanamido)-3-oxopropylcarbamate], the inhibition constant (Ki) on memapsin 2 was more than 600 nM. On to `COc1ccc(C[C@H](NC(=O)[C@H](CNC(=O)OC(C)(C)C)NC(=O)[C@@H](C)Cc2nc(C)cs2)[C@@H](O)C[C@@H](C)C(=O)N[C@H](C(=O)NCC(C)C)C(C)C)cc1` [tert-butyl (S)-3-((2S,3S,5R)-3-hydroxy-6-((S)-1-(isobutylamino)-3-methyl-1-oxobutan-2-ylamino)-1-(4-methoxyphenyl)-5-methyl-6-oxohexan-2-ylamino)-2-((S)-2-methyl-3-(4-methylthiazol-2-yl)propanamido)-3-oxopropylcarbamate], for which the Ki at memapsin 2 was more than 600 nM; at Cathepsin D, less than 100 nM. Regarding `Cc1nc(COC(=O)N[C@@H](CC(=O)OCc2ccccc2)C(=O)N[C@@H](CC(C)C)[C@@H](O)C[C@@H](C)C(=O)N[C@H](C(=O)NCC(C)C)C(C)C)c(C)o1` [(S)-benzyl 3-(((2,5-dimethyloxazol-4-yl)methoxy)carbonylamino)-4-((4S,5S,7R)-5-hydroxy-8-((S)-1-(isobutylamino)-3-methyl-1-oxobutan-2-ylamino)2,7-dimethyl-8-oxooctan-4-ylamino)-4-oxobutanoate], the Ki at memapsin 2 and on Cathepsin D was less than 100 nM throughout.

Regarding `Cc1nc(COC(=O)N[C@@H](CC(=O)O)C(=O)N[C@@H](CC(C)C)[C@@H](O)C[C@@H](C)C(=O)N[C@H](C(=O)NCC(C)C)C(C)C)c(C)o1` [(S)-3-(((2,5-dimethyloxazol-4-yl)methoxy)carbonylamino)-4-((4S,5S,7R)-5-hydroxy-8-((S)-1-(isobutylamino)-3-methyl-1-oxobutan-2-ylamino)2,7-dimethyl-8-oxooctan-4-ylamino)-4-oxobutanoic acid], the figures for the inhibition constant Ki at memapsin 2 and at Cathepsin D were 100 to 600 nM and less than 100 nM, respectively.

As for `Cc1csc(COC(=O)N[C@@H](CC(N)=O)C(=O)N[C@@H](CC(C)C)[C@@H](O)C[C@@H](C)C(=O)N[C@H](C(=O)NCC(C)C)C(C)C)n1` [(4-methylthiazol-2-yl)methyl (S)-4-amino-1-((4S,5S,7R)-5-hydroxy-8-((S)-1-(isobutylamino)-3-methyl-1-oxobutan2-ylamino)-2,7-dimethyl-8-oxooctan-4-ylamino)-1,4-dioxobutan-2-ylcarbamate], the Ki on memapsin 2 is 100 to 600 nM; at Cathepsin D, more than 600 nM. For `Cc1cc(C)n(CCC(=O)N[C@@H](CC(N)=O)C(=O)N[C@@H](CC(C)C)[C@@H](O)C[C@@H](C)C(=O)NC(CO)C(=O)NCC(C)C)n1` (stereo partly drawn) [(2S)-2-(3-(3,5-dimethyl-1H-pyrazol-1-yl)propanamido)-N1-((4S,5S,7R)-5-hydroxy-8-(3-hydroxy-1-(isobutylamino)-1-oxopropan-2-ylamino)-2,7-dimethyl-8-oxooctan-4-yl)succinamide], the inhibitory constant (Ki) at memapsin 2 is more than 600 nM. Regarding `COCCOCCOC(=O)C[C@H](NC(=O)OCc1nc(C)oc1C)C(=O)N[C@@H](CC(C)C)[C@@H](O)C[C@@H](C)C(=O)N[C@H](C(=O)NCC(C)C)C(C)C` [(S)-2-(2-methoxyethoxy)ethyl 3-(((2,5-dimethyloxazol-4-yl)methoxy)carbonylamino)-4-((4S,5S,7R)-5-hydroxy-8-((S)-1-(isobutylamino)-3-methyl-1-oxobutan-2-ylamino)2,7-dimethyl-8-oxooctan-4-ylamino)-4-oxobutanoate], the Ki at memapsin 2 and at Cathepsin D was less than 100 nM in each case.

In the case of `Cc1nc(COC(=O)N[C@@H](CC(=O)NCc2ccncc2)C(=O)N[C@@H](CC(C)C)[C@@H](O)C[C@@H](C)C(=O)N[C@H](C(=O)NCC(C)C)C(C)C)c(C)o1` [(2,5-dimethyloxazol-4-yl)methyl (5S,8S,9S,11R,14S)-9-hydroxy-8-isobutyl-14-isopropyl-11,18-dimethyl-3,6,12,15-tetraoxo-1-(pyridin-4-yl)-2,7,13,16-tetraazanonadecan-5-ylcarbamate], the figures for the inhibitory constant (Ki) on memapsin 2 and at Cathepsin D were 100 to 600 nM and less than 100 nM, respectively. Turning to `COCC[C@H](NC(=O)[C@H](C)C[C@H](O)[C@H](CC(C)C)NC(=O)[C@H](CC(N)=O)NC(=O)CCn1nc(C)cc1C)C(=O)NCC(C)C` [(S)-2-(3-(3,5-dimethyl-1H-pyrazol-1-yl)propanamido)-N1-((4S,5S,7R)-5-hydroxy-8-((S)-1-(isobutylamino)-4-methoxy-1-oxobutan-2-ylamino)-2,7-dimethyl-8-oxooctan-4-yl)succinamide], the Ki on memapsin 2 is more than 600 nM. On to `Cc1cc(C)n(CCC(=O)N[C@@H](CC(N)=O)C(=O)N[C@@H](CC(C)C)[C@@H](O)C[C@@H](C)C(=O)N[C@H](C(=O)NCC(C)C)C(C)C)n1` [(S)-2-(3-(3,5-dimethyl-1H-pyrazol-1-yl)propanamido)-N1-((4S,5S,7R)-5-hydroxy-8-((S)-1-(isobutylamino)-3-methyl-1-oxobutan-2-ylamino)-2,7-dimethyl-8-oxooctan-4-yl)succinamide], for which the Ki at memapsin 2 was 100 to 600 nM; on Cathepsin D, less than 100 nM.

For the molecule `Cc1cc(C)n(CCC(=O)N[C@@H](CC(N)=O)C(=O)N[C@@H](CC(C)C)[C@@H](O)C[C@@H](C)C(=O)NC2(C(=O)NCC(C)C)CCCC2)n1` [(S)-2-(3-(3,5-dimethyl-1H-pyrazol-1-yl)propanamido)-N1-((4S,5S,7R)-5-hydroxy-8-(1-(isobutylcarbamoyl)cyclopentylamino)-2,7-dimethyl-8-oxooctan-4-yl)succinamide], the Ki at memapsin 2 is more than 600 nM. For the molecule `Cc1cc(C)n(CC(C)C(=O)N[C@@H](CC(N)=O)C(=O)N[C@@H](CC(C)C)[C@@H](O)C[C@@H](C)C(=O)N[C@H](C(=O)NCC(C)C)C(C)C)n1` (stereo partly drawn) [(2S)-2-(3-(3,5-dimethyl-1H-pyrazol-1-yl)-2-methylpropanamido)-N1-((4S,5S,7R)-5-hydroxy-8-((S)-1-(isobutylamino)-3-methyl-1-oxobutan-2-ylamino)-2,7-dimethyl-8-oxooctan-4-yl)succinamide], at memapsin 2, the Ki lay in the range of 100 to 600 nM.

Consider `CCNC(=O)C[C@H](NC(=O)[C@@H](C)Cc1nc(C)cs1)C(=O)N[C@@H](CC(C)C)[C@@H](O)C[C@@H](C)C(=O)N[C@H](C(=O)NCC(C)C)C(C)C` [(S)-N4-ethyl-N1-((4S,5S,7R)-5-hydroxy-8-((S)-1-(isobutylamino)-3-methyl-1-oxobutan-2-ylamino)-2,7-dimethyl-8-oxooctan-4-yl)-2-((S)-2-methyl-3-(4-methylthiazol-2-yl)propanamido)succinamide], for which the Ki at memapsin 2 was less than 100 nM. Same read-out and setting: then `Cc1cc(C)n(CCC(=O)N[C@@H](CC(=O)O)C(=O)N[C@@H](CC(C)C)[C@@H](O)C[C@@H](C)C(=O)N[C@H](C(=O)NCC(C)C)C(C)C)n1` [(S)-3-(3-(3,5-dimethyl-1H-pyrazol-1-yl)propanamido)-4-((4S,5S,7R)-5-hydroxy-8-((S)-1-(isobutylamino)-3-methyl-1-oxobutan-2-ylamino)-2,7-dimethyl-8-oxooctan-4-ylamino)-4-oxobutanoic acid], with 100 to 600 nM. Still for that read-out and setting: the figure for `Cc1cc(C)n(CCC(=O)N[C@@H](CC(N)=O)C(=O)N[C@@H](CC(C)C)[C@@H](O)C[C@@H](C)C(=O)NC(C)(C)C(=O)NCC(C)C)n1` [(S)-2-(3-(3,5-dimethyl-1H-pyrazol-1-yl)propanamido)-N1-((4S,5S,7R)-5-hydroxy-8-(1-(isobutylamino)-2-methyl-1-oxopropan-2-ylamino)-2,7-dimethyl-8-oxooctan-4-yl)succinamide] is more than 600 nM.

Usually Ki stands for a measure of affinity in units of concentration, obtained from inhibition or displacement.
